Laboratory results: US4150138A, “Method of reducing blood pressure with thiourea derivatives and guanidine derivatives” (Hoffmann-La Roche Inc., priority 1978, dated 1979)
Read-outs that look alike come from different tables or passages of the source.

How the values were obtained:
[1] = system: genetically or deoxycorticosterone acetate/sodium chloride fed hypertensive rats; test: Anti-hypertensive activity in hypertensive rats (indirect systolic blood pressure from the tail, heart rate); type: in vivo, rat (Charles River male); details: 10 mg/kg p.o., 6 hours after administration
Method: For example, Doca-Na hypertension is induced in Charles River male rats weighing 170-210 grams by unilateral nephrectomy followed by subcutaneous implantation of a 25 mg. deoxycorticosterone acetate pellet. Animals are placed in individual cages and receive 0.9% sodium chloride solution and rat chow diet ad libitum. Two weeks are allowed to elapse from the time of surgery for development of hypertension, i.e., systolic blood pressure above 150 mm Hg. Systolic blood pressure is measured indirectly from the tail of unanesthetized rats (restrained in holders heated for 5-10 minutes at 37°-38° C.) using a pneumatic pulse transducer (piezo-electric crystal and occluding cuff). The transducer and occluding cuff are coupled to a two-channel recorder. Control readings are taken prior to drug and at 1, 3, 6 and 24 hours post-drug. All test compounds are prepared in acacia solution (5%) and are orally administered to the test animals.

[2] = Acute toxicity (LD50) in the mouse; details: in vivo
[3] = system: tetrabenazine-induced ptosis in mice; test: Antidepressant activity: prevention of tetrabenazine-induced ptosis in mice; type: in vivo; details: Mus musculus, ip, 1 h, tetrabenazine (normally 150 mg/kg) i.p. one hour after test compound, ptosis read one hour later, read-out: ED50 (dose at which ptosis is prevented in 3/6 of the mice)
Method: The compounds of formulas I and II have central nervous system activity, including antidepressant activity. […] For example, six mice are treated with the test compound. One hour later a ptosis-inducing dose of tetrabenazine (normally 150 mg/kg) is given intraperitoneally. Ptosis is read one hour after the tetrabenazine injection. The ED50 is the dose at which ptosis is prevented in 3/6 of the mice. […] The ED50 is calculated by the method of Behrens. Arch. Exp. Path. & Pharm. 140, 237 (1929).

## NCCNC(=S)Nc1cccc(Cl)c1Cl [1-(2-aminoethyl)-3-(2,3-dichlorophenyl)thiourea]
[1]
  decrease in the blood pressure: 51 mm/Hg
  decrease in the heart rate: 95 beats/minutes
[2]; ip, read-out: LD50 i.p.
  LD50: 450 mg/kg
[2]; po, read-out: LD50 p.o.
  LD50: > 1000 mg/kg

## NCCNC(=S)Nc1c(Cl)cccc1Cl [1-(2-aminoethyl)-3-(2,6-dichlorophenyl)thiourea]
[1]
  decrease in the blood pressure: 73 mm/Hg
  decrease in the heart rate: 81 beats/minutes
[2]; ip, read-out: LD50 i.p.
  LD50: 450 to 550 mg/kg
[2]; po, read-out: LD50 p.o.
  LD50: 750 to 775 mg/kg
[3]
  ED50: 5.7 mg/kg
